The values that follow come from patent US20230331715A1, “SPIRO[3.3]HEPTANE DERIVATIVES FOR THE TREATMENT AND PROPHYLAXIS OF HEPATITIS B VIRUS INFECTION” (priority 2020, published 2023).

Where only a bound is given, the exact number is not on record here.

Type in all cases: cell-based
One series relates to HBeAg. The experiment in a line: PHH HBV natural infection assay, HBeAg (alphalisa). As to conditions: Hepatitis B virus, 72 h, read-out: HBeAg IC50, HBV-infected PHH, culture supernatant, compound refreshed two times with 72-hour interval, alphalisa. The method, then: (§1) Detailed procedures regarding primary human hepatocyte (PHH) HBV natural infection assay are described as below. One tube of frozen PHH (10 million cells) is thawed in 37° C. water bath and then transferred to 20 mL of PHH thawing medium (Sigma, InVitroGRO HT Medium, Cat. S03319) with gently mixing. The cells were then centrifuged at […] for 5 min, the supernatant was discarded and the tube was refilled with 25 mL of PHH plating medium (Sigma, InVitroGRO CP Medium, Cat. S03317). The tube was shaken very gently to re-suspend all cells, and then 50 µl of cells were transferred to each well 384-well collagen I coated plate with appropriate liquid handling equipment, e.g. Integra VIAFLO384 or Agilent Bravo. The cells were then cultured for 24 hours in a cell incubator. For HBV infection, after PHH attachment on the culture plate, the plating medium was removed and replenished with PHH culture medium containing HBV virus. The PHH culture medium was prepared with Dulbecco’s Modified Eagle Medium (DMEM)/F12 (1: 1 in volume ratio) containing 10% fetal bovine serum (Gibco, Cat. 10099141), 5 ng/mL human epidermal growth factor (Gibco, Cat.PHG0311L), 20 ng/mL dexamethasone (Sigma, Cat.D4902-100mg), 250 ng/mL human recombinant insulin (Gibco, Cat.41400045) and 100 U/mL penicillin. HBV virus at 200 genome equivalent (GE) per cell with 4% PEG8000 (Sigma, Cat.P1458) containing culture medium were added to the PHH culture medium for infection. The cells were then cultured for 24 hours in cell incubator. Then the cell culture supernatant was removed. The HBV-infected PHH were cultured with sandwich culture method with PHH culture medium containing 1% DMSO and 0.25 mg/mL matrix gel for 72 hours. The supernatant was then refreshed with PHH culture medium containing different concentrations of testing compounds for two times with 72-hour interval. At the end of treatment, the supernatant was collected for viral markers measurements, including HBsAg, HBeAg, HBV DNA and cytotoxicity. HBsAg and HBeAg were detected using alphalisa method using their specific antibodies. For HBV DNA detection, HBV DNA Quantitative Fluorescence Diagnostic Kit (Sansure Biotech Inc.) was used following the manufacture’s protocol. Cytotoxicity was determined using Cell Counting Kit-8 (CCK8, Dojindo Molecular Technologies, Inc.).
(§2) The compounds of the present invention were tested for their capacity to inhibit HBsAg and HBeAg as described herein.
(Bead proximity is the source of the signal in Alpha formats.)

The next series concerns HBsAg. The experiment in a line: PHH HBV natural infection assay, HBsAg (alphalisa). As to conditions: Hepatitis B virus, 72 h, read-out: HBsAg IC50, HBV-infected PHH, culture supernatant, compound refreshed two times with 72-hour interval, alphalisa. The method, then:
as §1, §2

The nature of series [1]: Cytotoxicity in PHH natural infection assay (Cell Counting Kit-8). As to conditions: human; HBV-infected PHH, CCK8, compound refreshed two times with 72-hour interval. The method, then:
as §1
(In general: Tetrazolium assays rely on reduction of a dye to a coloured formazan, in cell work by metabolically active cells.)

As a reminder, the IC50 is the point on the concentration scale where inhibition reaches its midpoint. As usually defined, the CC50 is the concentration at which the toxic effect on the cells reaches its halfway point. A high value points to lower toxicity to the cells.

Take `O=C(NC1CC2(C1)CC(c1nc3cc(Cl)ccc3s1)C2)c1ccc(S(=O)(=O)C2CC2)o1` (stereo not drawn) [Example 13, N-[6-(5-chloro-1,3-benzothiazol-2-yl)spiro[3.3]heptan-2-yl]-5-cyclopropylsulfonyl-furan-2-carboxamide]: the IC50 in the series on HBeAg is 0.36 µM; with HBsAg, 0.48 µM. In addition, the CC50 at 144 h in series [1] was 94.9 µM.
In the case of `O=C(NC1CC2(C1)CC(c1nc3cc(Cl)ccc3s1)C2)c1ccc(C(F)(F)F)o1` (stereo not drawn) [Example 14, N-[6-(5-chloro-1,3-benzothiazol-2-yl)spiro[3.3]heptan-2-yl]-5-(trifluoromethyl)furan-2-carboxamide], the concentration for half-maximal inhibition (IC50) in the series on HBeAg turned out to be 2.52 µM; with HBsAg it was 2.48 µM. This compound also came in with a CC50 at 144 h in series [1] of over 100 µM.
For the compound `O=C(NC1CC2(C1)CC(c1nc3ccc(Cl)cc3s1)C2)c1ccc(C(F)(F)F)o1` (stereo not drawn) [Example 15, N-[6-(6-chloro-1,3-benzothiazol-2-yl)spiro[3.3]heptan-2-yl]-5-(trifluoromethyl)furan-2-carboxamide], the results for the IC50 in the series on HBeAg and with HBsAg were 2.07 µM and 2.96 µM, respectively. This compound also gave a CC50 at 144 h in series [1] of over 100 µM.
On to `CC(c1ccc(C(=O)NC2CC3(C2)CC(c2nc4cc(Cl)ccc4s2)C3)o1)S(C)(=O)=O` (stereo not drawn) [Example 16, N-[6-(5-chloro-1,3-benzothiazol-2-yl)spiro[3.3]heptan-2-yl]-5-(1-methylsulfonylethyl)furan-2-carboxamide], for which the half-maximal inhibitory concentration (IC50) with HBeAg is 1.92 µM; with HBsAg it was 2.69 µM. Besides, it took 23.9 µM to reach half-maximal cytotoxicity in series [1] (CC50 at 144 h).
As for `CC(C)(c1ccc(C(=O)NC2CC3(C2)CC(c2nc4cc(Cl)ccc4s2)C3)o1)S(C)(=O)=O` (stereo not drawn) [Example 17, N-[6-(5-chloro-1,3-benzothiazol-2-yl)spiro[3.3]heptan-2-yl]-5-(1-methyl-1-methylsulfonyl-ethyl)furan-2-carboxamide], the IC50 with HBeAg came to 1.6 µM; with HBsAg, 2.11 µM. The CC50 at 144 h in series [1] came to 35.7 µM.
In the case of `O=C(NC1CC2(C1)CC(c1nc3cc(Cl)ccc3s1)C2)c1ccc(C(O)C(F)(F)F)o1` (stereo not drawn) [Example 18, N-[6-(5-chloro-1,3-benzothiazol-2-yl)spiro[3.3]heptan-2-yl]-5-(2,2,2-trifluoro-1-hydroxyethyl)furan-2-carboxamide], the results for the IC50 in the series with HBeAg and with HBsAg were 4.59 µM and 5.52 µM, respectively. This compound registered a CC50 at 144 h in series [1] of over 10 µM.
`Nc1nc(C(=O)NC2CC3(C2)CC(c2nc4cc(Cl)ccc4s2)C3)cs1` (stereo not drawn) [Example 19, 2-amino-N-[6-(5-chloro-1,3-benzothiazol-2-yl)spiro[3.3]heptan-2-yl]thiazole-4-carboxamide]: the half-inhibitory concentration (IC50) with HBeAg is 6.83 µM; with HBsAg, 7.55 µM. For the same compound, in series [1], the cytotoxic concentration (CC50) at 144 h was 31.5 µM.
Consider `O=C(NC1CC2(C1)CC(c1nc3cc(Cl)ccc3s1)C2)c1ccc(S(=O)(=O)N2CCC2)o1` (stereo not drawn) [Example 20, 5-(azetidin-1-ylsulfonyl)-N-[6-(5-chloro-1,3-benzothiazol-2-yl)spiro[3.3]heptan-2-yl]furan-2-carboxamide], for which the concentration for half-maximal inhibition (IC50) turned out to be 4.06 µM in the series on HBeAg and 4.88 µM in the series with HBsAg. In series [1], this compound came in with a half-maximal cytotoxic concentration (CC50) at 144 h of over 10 µM.
With `O=C(NC1CC2(C1)CC(c1nc3cc(Cl)ccc3s1)C2)c1ccc(S(=O)(=O)N2CC(F)(F)C2)o1` (stereo not drawn) [Example 21, N-[6-(5-chloro-1,3-benzothiazol-2-yl)spiro[3.3]heptan-2-yl]-5-(3,3-difluoroazetidin-1-yl)sulfonyl-furan-2-carboxamide], the IC50 in the series with HBeAg came to 1.14 µM; in the series on HBsAg, 1.49 µM. Further, in series [1], the CC50 at 144 h is over 10 µM.
Take `O=C(NC1CC2(C1)CC(c1nc3cc(Cl)ccc3s1)C2)c1ccc(S(=O)(=O)NC2CCC2)o1` (stereo not drawn) [Example 22, N-[6-(5-chloro-1,3-benzothiazol-2-yl)spiro[3.3]heptan-2-yl]-5-(cyclobutylsulfamoyl)furan-2-carboxamide]: the values for the IC50 with HBeAg and in the series with HBsAg were 1 µM and 1.39 µM, respectively. Besides, the CC50 at 144 h in series [1] amounted to 21.9 µM.
Taken in the same sequence, the figures for `O=C(NC1CC2(C1)CC(c1nc3cc(Cl)ccc3s1)C2)c1ccc(S(=O)(=O)NC2CC(F)(F)C2)o1` (stereo not drawn) [Example 23, N-[6-(5-chloro-1,3-benzothiazol-2-yl)spiro[3.3]heptan-2-yl]-5-[(3,3-difluorocyclobutyl)sulfamoyl]furan-2-carboxamide] were 0.85 µM, 1.25 µM and 14.3 µM.
For the compound `O=C(NC1CC2(C1)CC(c1nc3cc(Cl)ccc3s1)C2)c1ccc(S(=O)(=O)NC2CC(C(F)(F)F)C2)o1` (stereo not drawn) [Example 24, N-[6-(5-chloro-1,3-benzothiazol-2-yl)spiro[3.3]heptan-2-yl]-5-[[3-(trifluoromethyl)cyclobutyl]sulfamoyl]furan-2-carboxamide], the results for the IC50 with HBeAg and in the series on HBsAg were 1.04 µM and 1.4 µM, respectively. In addition, the 50% cytotoxic concentration (CC50) at 144 h in series [1] was found to be 19.7 µM.
Turning to `O=C(NC1CC2(C1)CC(c1nc3cc(Cl)ccc3s1)C2)C1CS(=O)(=O)C1` (stereo not drawn) [Example 25, N-[6-(5-chloro-1,3-benzothiazol-2-yl)spiro[3.3]heptan-2-yl]-1,1-dioxo-thietane-3-carboxamide], the IC50 in the series on HBeAg came to 2.07 µM; with HBsAg, 2.59 µM. In addition, the CC50 at 144 h in series [1] is over 10 µM.
As to `O=C(NC1CC2(C1)CC(c1nc3cc(Cl)ccc3s1)C2)C1CCS(=O)(=O)C1` (stereo not drawn) [Example 26, N-[6-(5-chloro-1,3-benzothiazol-2-yl)spiro[3.3]heptan-2-yl]-1,1-dioxo-thiolane-3-carboxamide], the IC50 with HBeAg amounted to 1.18 µM; in the series with HBsAg, 1.99 µM. In series [1], this compound showed a half-maximal cytotoxic concentration (CC50) at 144 h of over 100 µM.
For `O=C(NC1CC2(C1)CC(c1nc3ccc(Cl)cc3s1)C2)C1CCS(=O)(=O)C1` (stereo not drawn) [Example 27, N-[6-(6-chloro-1,3-benzothiazol-2-yl)spiro[3.3]heptan-2-yl]-1,1-dioxo-thiolane-3-carboxamide], the IC50 came out at 0.56 µM in the series on HBeAg and 1.15 µM in the series on HBsAg. For the same compound, in series [1], the half-maximal cytotoxic concentration (CC50) at 144 h was over 100 µM.
For the compound `O=C(CC1CS(=O)(=O)C1)NC1CC2(C1)CC(c1nc3cc(Cl)ccc3s1)C2` (stereo not drawn) [Example 28, N-[6-(5-chloro-1,3-benzothiazol-2-yl)spiro[3.3]heptan-2-yl]-2-(1,1-dioxothietan-3-yl)acetamide], the results for the IC50 in the series on HBeAg and in the series with HBsAg were 1.66 µM and 3.28 µM, respectively. In series [1], the CC50 at 144 h is over 10 µM.
Taken in the same sequence, the figures for `O=C(CC1CCCS1(=O)=O)NC1CC2(C1)CC(c1nc3cc(Cl)ccc3s1)C2` (stereo not drawn) [Example 29, N-[6-(5-chloro-1,3-benzothiazol-2-yl)spiro[3.3]heptan-2-yl]-2-(1,1-dioxothiolan-2-yl)acetamide] were 3.59 µM, 4.74 µM and over 10 µM.
As to `O=C(CC1CCCS(=O)(=O)C1)NC1CC2(C1)CC(c1nc3cc(Cl)ccc3s1)C2` (stereo not drawn) [Example 30, N-[6-(5-chloro-1,3-benzothiazol-2-yl)spiro[3.3]heptan-2-yl]-2-(1,1-dioxothian-3-yl)acetamide], the IC50 in the series on HBeAg and in the series with HBsAg was 3.47 µM each time. Besides, the CC50 at 144 h in series [1] was over 10 µM.
For the compound `CCN1CC(C(=O)NC2CC3(C2)CC(c2nc4cc(Cl)ccc4s2)C3)CC1=O` (stereo not drawn) [Example 31, N-[6-(5-chloro-1,3-benzothiazol-2-yl)spiro[3.3]heptan-2-yl]-1-ethyl-5-oxo-pyrrolidine-3-carboxamide], the IC50 in the series on HBeAg stood at 8.29 µM; in the series on HBsAg, 9.58 µM. The same compound had a cytotoxic concentration (CC50) at 144 h in series [1] of over 10 µM.
Taken in the same sequence, the figures for `CN1CCC(C(=O)NC2CC3(C2)CC(c2nc4cc(Cl)ccc4s2)C3)CC1=O` (stereo not drawn) [Example 32, N-[6-(5-chloro-1,3-benzothiazol-2-yl)spiro[3.3]heptan-2-yl]-1-methyl-2-oxo-piperidine-4-carboxamide] were 4.13 µM, 6.11 µM and over 10 µM.
In the case of `O=C1CCC(CC(=O)NC2CC3(C2)CC(c2nc4cc(Cl)ccc4s2)C3)N1` (stereo not drawn) [Example 33, N-[6-(5-chloro-1,3-benzothiazol-2-yl)spiro[3.3]heptan-2-yl]-2-(5-oxopyrrolidin-2-yl)acetamide], the IC50 was determined as 4.12 µM with HBeAg and 4.08 µM in the series with HBsAg. Moreover, the CC50 at 144 h in series [1] is over 10 µM.
